Consider four sequences from US20070128217A1 (priority 2003, published 2007).

Assay [1] has as its system antibodies in sera from SARS patients (sera 1a, 1b, 2, 6, 37, 62, London, SARS-yellow, SARS-green). The class given is binding, human. On the set-up: Binding of serum 6 to linear peptides of protein X1 of SARS-CoV Urbani / Binding of serum 37 to linear peptides of protein X1 of SARS-CoV Urbani / Binding of serum 6 to looped/cyclic peptide (PEPSCAN-ELISA) / Binding of serum 37 to looped/cyclic peptide (PEPSCAN-ELISA) / Binding of serum 37 to looped/cyclic peptides of protein X1 of SARS-CoV Urbani / Binding of serum 6 to linear peptides of protein X2 / Binding of serum 37 to linear peptides of protein X2 / Binding of serum 37 to looped/cyclic peptides of protein X2 of SARS-CoV Urbani / Binding of serum 6 to linear peptides of protein M of SARS-CoV Urbani / Binding of serum 37 to linear peptides of protein M of SARS-CoV Urbani / Binding of serum 6 to looped/cyclic peptides of protein M of SARS-CoV Urbani / Binding of serum 37 to looped/cyclic peptides of protein M of SARS-CoV Urbani / Binding of serum 6 to linear peptides of protein X3 of SARS-CoV Urbani / Binding of serum 37 to linear peptides of protein X3 of SARS-CoV Urbani / Binding of serum 37 to looped/cyclic peptides of protein X3 of SARS-CoV Urbani / Binding of serum 6 to linear peptides of protein X4 of SARS-CoV Urbani / Binding of serum 37 to linear peptides of protein X4 of SARS-CoV Urbani / Binding of serum 37 to looped/cyclic peptides of protein X4 of SARS-CoV Urbani / Binding of serum 6 to linear peptides of protein X5 of SARS-CoV Urbani / Binding of serum 37 to linear peptides of protein X5 of SARS-CoV Urbani / Binding of serum 37 to looped/cyclic peptides of protein X5 of SARS-CoV Urbani / Binding of serum 6 to linear peptides of protein N of SARS-CoV Urbani / Binding of serum 37 to linear peptides of protein N of SARS-CoV Urbani / Binding of serum 6 to linear peptide (PEPSCAN-ELISA) / Binding of serum 1a to looped/cyclic peptides of protein N of SARS-CoV Urbani / Binding of serum 1b to looped/cyclic peptides of protein N of SARS-CoV Urbani / Binding of serum 2 to looped/cyclic peptides of protein N of SARS-CoV Urbani / Binding of serum 6 to looped/cyclic peptides of protein N of SARS-CoV Urbani / Binding of serum 37 to looped/cyclic peptides of protein N of SARS-CoV Urbani / Binding of serum 62 to looped/cyclic peptides of protein N of SARS-CoV Urbani / Binding of serum London to looped/cyclic peptides of protein N of SARS-CoV Urbani / Binding of serum SARS-green to looped/cyclic peptides of protein N of SARS-CoV Urbani: unit not given here.

Assay [2] relates to control sera (pooled serum of ten healthy LUMC hospital workers; commercial negative donor pooled serum from the Dutch bloodbank). The class given is binding, human. On the set-up: Binding of Control serum LUMC to linear peptides / Binding of Control serum Blood-bank to linear peptides / Binding of Control serum LUMC to looped peptides / Binding of Control Serum Blood-Bank to Looped peptides / Binding of Control serum LUMC to linear peptides of the protein M of SARS-CoV Urbani / Binding of Control serum Blood-bank to linear peptides of the protein M of SARS-CoV Urbani / Binding of Control serum LUMC to looped peptides of the protein M of SARS-CoV Urbani / Binding of Control Serum Blood-Bank to Looped peptides of the protein M of SARS-CoV Urbani: unit not given here.

Assay [3] concerns rabbit serum obtained by immunizing a rabbit with the SARS-CoV strain Frankfurt 1. It counts as binding. Also noted: Binding of a rabbit serum to linear peptides / Binding of a rabbit serum to looped peptides / Rabbit serum linear peptides / Rabbit serum looped peptides / Binding of a rabbit serum to linear peptides of protein N of SARS-CoV Urbani (Rabbit serum linear peptides) / Binding of a rabbit serum to looped/cyclic peptides of protein N of SARS-CoV Urbani (Rabbit serum looped peptides): unit not given here.

With WNLDVIISSIVRQLF, in assay [1], the “Binding of serum 1a to linear peptides of protein X3 of SARS-CoV Urbani” value was determined as 0.7, the “Binding of serum 1a to looped/cyclic peptides of protein X3 of SARS-CoV Urbani” value worked out at 0.5, the “Binding of serum 1b to linear peptides of protein X3 of SARS-CoV Urbani” value was 0.2 and the “Binding of serum 1b to looped/cyclic peptides of protein X3 of SARS-CoV Urbani” value turned out to be 0.3. For the same sequence, in assay [1], the “Binding of serum 2 to linear peptides of protein X3 of SARS-CoV Urbani” value is reported as 0.4, the “Binding of serum 2 to looped/cyclic peptides of protein X3 of SARS-CoV Urbani” value is given as 0.4, the “Binding of serum 6 to linear peptides of protein X3 of SARS-CoV Urbani” value was 0.4 and the “Binding of serum 6 to looped/cyclic peptides of protein X3 of SARS-CoV Urbani” value is given as 0.4. Besides, in assay [1], the “Binding of serum 37 to linear peptides of protein X3 of SARS-CoV Urbani” value was 0.6, the “Binding of serum 37 to looped/cyclic peptides of protein X3 of SARS-CoV Urbani” value was determined as 0.4, the “Binding of serum 62 to linear peptides of protein X3 of SARS-CoV Urbani” value is 0.6 and the “Binding of serum 62 to looped/cyclic peptides of protein X3 of SARS-CoV Urbani” value stood at 0.4. Moreover, in assay [1], the “Binding of serum London to linear peptides of protein X3 of SARS-CoV Urbani” value is 0.5, the “Binding of serum London to looped/cyclic peptides of protein X3 of SARS-CoV Urbani” value is on record as 0.2, the “Binding of serum SARS-green to linear peptides of protein X3 of SARS-CoV Urbani” value was found to be 0.2 and the “Binding of serum SARS-green to looped/cyclic peptides of protein X3 of SARS-CoV Urbani” value came out at 0.2. Further, in assay [1], the “Binding of serum SARS-yellow to linear peptides of protein X3 of SARS-CoV Urbani” value was determined as 0.2 and the “Binding of serum SARS-yellow to looped/cyclic peptides of protein X3 of SARS-CoV Urbani” value was determined as 0.5. For the same sequence, in assay [2], the “Binding of Control Serum Blood-Bank to Looped peptides of the protein X3 of SARS-CoV Urbani” value is listed as 0.8, the “Binding of Control serum Blood-bank to linear peptides of the protein X3 of SARS-CoV Urbani” value worked out at 0.6, the “Binding of Control serum LUMC to linear peptides of the protein X3 of SARS-CoV Urbani” value came to 0.3 and the “Binding of Control serum LUMC to looped peptides of the protein X3 of SARS-CoV Urbani” value came to 0.7. Further, in assay [3], the “Rabbit serum linear peptides” value came out at 0.1 and the “Rabbit serum looped peptides” value is given as 0.2.
WPVTLACFVLAAVYR: in assay [1], the “Binding of serum 1a to linear peptides of protein M of SARS-CoV Urbani” value came out at 0.7, the “Binding of serum 1a to looped/cyclic peptides of protein M of SARS-CoV Urbani” value is given as 0.8, the “Binding of serum 1b to linear peptides of protein M of SARS-CoV Urbani” value was 0.5 and the “Binding of serum 1b to looped/cyclic peptides of protein M of SARS-CoV Urbani” value is given as 0.6. Also, in assay [1], the “Binding of serum 2 to linear peptides of protein M of SARS-CoV Urbani” value came out at 0.4, the “Binding of serum 2 to looped/cyclic peptides of protein M of SARS-CoV Urbani” value is 0.8, the “Binding of serum 6 to linear peptides of protein M of SARS-CoV Urbani” value came out at 0.3 and the “Binding of serum 6 to looped/cyclic peptides of protein M of SARS-CoV Urbani” value stood at 1.1. For the same sequence, in assay [1], the “Binding of serum 37 to linear peptides of protein M of SARS-CoV Urbani” value turned out to be 0.4, the “Binding of serum 37 to looped/cyclic peptides of protein M of SARS-CoV Urbani” value was found to be 0.8, the “Binding of serum 62 to linear peptides of protein M of SARS-CoV Urbani” value worked out at 0.4 and the “Binding of serum 62 to looped/cyclic peptides of protein M of SARS-CoV Urbani” value is 1.1. In addition, in assay [1], the “Binding of serum London to linear peptides of protein M of SARS-CoV Urbani” value was found to be 0.3, the “Binding of serum London to looped/cyclic peptides of protein M of SARS-CoV Urbani” value came to 0.4, the “Binding of serum SARS-green to linear peptides of protein M of SARS-CoV Urbani” value worked out at 0.4 and the “Binding of serum SARS-green to looped/cyclic peptides of protein M of SARS-CoV Urbani” value is reported as 0.2. Besides, in assay [1], the “Binding of serum SARS-yellow to linear peptides of protein M of SARS-CoV Urbani” value is reported as 0.2 and the “Binding of serum SARS-yellow to looped/cyclic peptides of protein M of SARS-CoV Urbani” value is 0.4. In assay [2], the “Binding of Control Serum Blood-Bank to Looped peptides of the protein M of SARS-CoV Urbani” value came to 0.8, the “Binding of Control serum Blood-bank to linear peptides of the protein M of SARS-CoV Urbani” value was found to be 0.7, the “Binding of Control serum LUMC to linear peptides of the protein M of SARS-CoV Urbani” value amounted to 0.5 and the “Binding of Control serum LUMC to looped peptides of the protein M of SARS-CoV Urbani” value is reported as 1.2. Also, in assay [3], the “Rabbit serum linear peptides” value is 0.2 and the “Rabbit serum looped peptides” value is 0.4.
Regarding YFVASFRLFARTRSM, in assay [1], the “Binding of serum 1a to linear peptides of protein M of SARS-CoV Urbani” value is 0.6, the “Binding of serum 1b to linear peptides of protein M of SARS-CoV Urbani” value was found to be 0.4, the “Binding of serum 2 to linear peptides of protein M of SARS-CoV Urbani” value came to 0.4 and the “Binding of serum 6 to linear peptides of protein M of SARS-CoV Urbani” value is listed as 0.4. Besides, in assay [1], the “Binding of serum 37 to linear peptides of protein M of SARS-CoV Urbani” value amounted to 0.4, the “Binding of serum 62 to linear peptides of protein M of SARS-CoV Urbani” value was determined as 0.6, the “Binding of serum London to linear peptides of protein M of SARS-CoV Urbani” value came to 0.3 and the “Binding of serum SARS-green to linear peptides of protein M of SARS-CoV Urbani” value is recorded as 0.3. In assay [1], the “Binding of serum SARS-yellow to linear peptides of protein M of SARS-CoV Urbani” value amounted to 0.1; the “Recognition of the peptide by sera of SARS-CoV infected individuals, and form (linear, looped/cyclic) in which it is recognized” value was “recognized in looped/cyclic form”. Moreover, in assay [2], the “Binding of Control Serum Blood-Bank to Looped peptides of the protein M of SARS-CoV Urbani” value is reported as 0.9, the “Binding of Control serum Blood-bank to linear peptides of the protein M of SARS-CoV Urbani” value is 0.6, the “Binding of Control serum LUMC to linear peptides of the protein M of SARS-CoV Urbani” value came out at 0.3 and the “Binding of Control serum LUMC to looped peptides of the protein M of SARS-CoV Urbani” value was 0.7. Besides, in assay [3], the “Rabbit serum linear peptides” value is recorded as 0.6 and the “Rabbit serum looped peptides” value was 0.8.
In the case of YHITVSQIQLSLLKV, in assay [1], the “Binding of serum 1a to linear peptides of protein X2” value worked out at 0.6, the “Binding of serum 1a to looped/cyclic peptides of protein X2 of SARS-CoV Urbani” value is 0.4, the “Binding of serum 1b to linear peptides of protein X2” value is on record as 0.5 and the “Binding of serum 1b to looped/cyclic peptides of protein X2 of SARS-CoV Urbani” value stood at 0.4. In assay [1], the “Binding of serum 2 to linear peptides of protein X2” value was determined as 0.5, the “Binding of serum 2 to looped/cyclic peptides of protein X2 of SARS-CoV Urbani” value is on record as 0.4, the “Binding of serum 6 to linear peptides of protein X2” value is listed as 0.5 and the “Binding of serum 6 to looped/cyclic peptides of protein X2 of SARS-CoV Urbani” value was found to be 0.1. Besides, in assay [1], the “Binding of serum 37 to linear peptides of protein X2” value is reported as 0.7, the “Binding of serum 37 to looped/cyclic peptides of protein X2 of SARS-CoV Urbani” value was 0.4, the “Binding of serum 62 to linear peptides of protein X2” value came to 0.5 and the “Binding of serum 62 to looped/cyclic peptides of protein X2 of SARS-CoV Urbani” value came to 0.5. In addition, in assay [1], the “Binding of serum London to linear peptides of protein X2” value amounted to 0.4, the “Binding of serum London to looped/cyclic peptides of protein X2 of SARS-CoV Urbani” value worked out at 0.2, the “Binding of serum SARS-green to linear peptides of protein X2” value turned out to be 0.1 and the “Binding of serum SARS-green to looped/cyclic peptides of protein X2 of SARS-CoV Urbani” value worked out at 0.3. Besides, in assay [1], the “Binding of serum SARS-yellow to linear peptides of protein X2” value is 0.6 and the “Binding of serum SARS-yellow to looped/cyclic peptides of protein X2 of SARS-CoV Urbani” value is on record as 0.4. Further, in assay [2], the “Binding of Control Serum Blood-Bank to Looped peptides” value is on record as 0.3, the “Binding of Control serum Blood-bank to linear peptides” value was 0.6, the “Binding of Control serum LUMC to linear peptides” value is 0.7 and the “Binding of Control serum LUMC to looped peptides” value is 0.4. In assay [3], the “Binding of a rabbit serum to linear peptides” value is given as 0.8 and the “Binding of a rabbit serum to looped peptides” value stood at 0.3.
